Assay results from patent US4345938A, “Herbicidal 2-haloacetanilides” (Monsanto Company, priority 1980, dated 1982).
Like-named read-outs stand apart in the source and are kept apart here.

Columns and labels:
Echinochloa crus-galli = assay: Field transplant rice test, applied 0 DAT, EC; type: in vivo; settings: 0 h, read-out: Percent Inhibition, EC; for inhibition at 375 g/ha: 0.375 Kg/Ha; for inhibition at 750 g/ha: 0.75 Kg/Ha; for inhibition at 1500 g/ha: 1.5 Kg/Ha; for inhibition at 3000 g/ha: 3.0 Kg/Ha
How it was run: (§1)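 Field test in transplanted rice, herbicide applied as granules (2.5% or 5.0% w/w active) at transplanting (0 DAT). Rates from 3.0 kg/ha down to 0.375 kg/ha. Weed control observed weekly from 2 to 6 weeks after transplant, reported at 2, 4 and 6 WAT.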

Cyperus serotinus [1] = assay: Greenhouse transplant rice test, CS; type: in vivo; settings: about 3 WAT, read-out: Percent Inhibition, CS
Description: (§2) The test procedure used in this greenhouse test is as follows: Ray silt loam top soil containing about 0.05% by weight of krillium and sifted through a […] screen is fumigated about 5-10 days prior to use. Pots are then filled with said Ray silt loam soil to a level to allow for a 1 in. (2.54 cm) flooding depth. Rice plants (Bluebelle) of 2 to 3 weeks age are transplanted to the pots and bulbs or seeds of the test weeds also planted in the pots. The pots are then flooded and the test chemical applied to the surface of the flood water. The flood water is reduced to allow for germination of the Echinochloa crus-galli (barnyardgrass) seed and subsequently reflooded and maintained in that condition. Observations of percent inhibition using a scale of 0-100% are made about 3 weeks after transplant (WAT).
(§3) The test data in Table III for all compounds was obtained under identical test conditions. The weeds used in the tests herein have the following abbreviations in the tables: Echinochloa crus-galli (EC), Monochloria vaginalis (MV), Cyperus Serotinus (CS), Eleocharis Kuroguwai (EK) and Sagittaria trifolia (ST).

Sagittaria trifolia [2] = assay: Greenhouse transplant rice test, ST; type: in vivo; settings: Sagittaria trifolia, about 3 WAT, read-out: Percent Inhibition, ST
Description: as §2, §3

Monochoria vaginalis = assay: Field transplant rice test, applied 0 DAT, MV; type: in vivo; settings: Pontederia vaginalis, 0 h, read-out: Percent Inhibition, MV; for inhibition at 375 g/ha: 0.375 Kg/Ha; for inhibition at 750 g/ha: 0.75 Kg/Ha; for inhibition at 1500 g/ha: 1.5 Kg/Ha; for inhibition at 3000 g/ha: 3.0 Kg/Ha
How it was run: as §1

Rice [3] = assay: Field transplant rice test, applied 9 DAT, rice injury; type: in vivo; settings: Oryza sativa, 216 h, read-out: Percent Inhibition, Rice; for inhibition at 375 g/ha: 0.375 Kg/Ha; for inhibition at 750 g/ha: 0.75 Kg/Ha; for inhibition at 1500 g/ha: 1.5 Kg/Ha; for inhibition at 3000 g/ha: 3.0 Kg/Ha
How it was run: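 Field transplant rice; herbicides applied as granules (2.5% by weight active, 5.0% for one prior-art comparator) at 9 days after transplant. Rates from 3.0 kg/ha (2.67 lb/A) down to 0.375 kg/ha (0.34 lb/A). Crop injury observed weekly from 3 to 7 weeks after transplant.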

Cyperus serotinus [4] = assay: Field transplant rice test, applied 0 DAT, CS; type: in vivo; settings: 0 h, read-out: Percent Inhibition, CS; for inhibition at 375 g/ha: 0.375 Kg/Ha; for inhibition at 750 g/ha: 0.75 Kg/Ha; for inhibition at 1500 g/ha: 1.5 Kg/Ha; for inhibition at 3000 g/ha: 3.0 Kg/Ha
How it was run: as §1

Rice [5] = assay: Greenhouse transplant rice test, rice injury; type: in vivo, Rice (Bluebelle); settings: Oryza sativa, about 3 WAT, read-out: Percent Inhibition, Rice
Description: as §2, §3

Sagittaria trifolia [6] = assay: Field transplant rice test, applied 9 DAT, ST; type: in vivo; settings: 216 h, read-out: Percent Inhibition, ST; for inhibition at 375 g/ha: 0.375 Kg/Ha; for inhibition at 750 g/ha: 0.75 Kg/Ha; for inhibition at 1500 g/ha: 1.5 Kg/Ha; for inhibition at 3000 g/ha: 3.0 Kg/Ha
How it was run: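 Field test in transplant rice: herbicides applied 9 DAT as granules (2.5% or 5.0% by weight active) at 3.0 down to 0.375 kg/ha. Weed control observed weekly from 3 to 7 WAT.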

In the case of CCCCOCN(C(=O)CCl)c1c(CC)cccc1CC [Compound A, 2',6'-diethyl-N-(n-butoxymethyl)-2-chloroacetanilide], the inhibition at 375 g/ha (Echinochloa crus-galli; 2 WAT) is reported as 60%, the inhibition at 375 g/ha (Echinochloa crus-galli; 4 WAT) is reported as 72% and the inhibition at 375 g/ha (Echinochloa crus-galli; 6 WAT) is reported as 60%. It also gave an inhibition at 750 g/ha (Echinochloa crus-galli; 2 WAT) of 90%, an inhibition at 750 g/ha (Echinochloa crus-galli; 4 WAT) of 100% and an inhibition at 750 g/ha (Echinochloa crus-galli; 6 WAT) of 100%. The inhibition at 1500 g/ha (Echinochloa crus-galli; 2 WAT) was 95%, the inhibition at 1500 g/ha (Echinochloa crus-galli; 4 WAT) was 100% and the inhibition at 1500 g/ha (Echinochloa crus-galli; 6 WAT) was 97%. For the same compound, the inhibition at 3000 g/ha (Echinochloa crus-galli; 2 WAT) was 98%, the inhibition at 3000 g/ha (Echinochloa crus-galli; 4 WAT) was 100% and the inhibition at 3000 g/ha (Echinochloa crus-galli; 6 WAT) was 100%. For the same compound, the inhibition at 280 g/ha (Cyperus serotinus [1]; 0.28 Kg/Ha) was 100%, the inhibition at 560 g/ha (Cyperus serotinus [1]; 0.56 Kg/Ha) was 85% and the inhibition at 1120 g/ha (Cyperus serotinus [1]; 1.12 Kg/Ha) was 90%. The inhibition at 2240 g/ha (Cyperus serotinus [1]; 2.24 Kg/Ha) was 100%, the inhibition at 280 g/ha (Sagittaria trifolia [2]; 0.28 Kg/Ha) was 15% and the inhibition at 560 g/ha (Sagittaria trifolia [2]; 0.56 Kg/Ha) was 45%. For the same compound, the inhibition at 1120 g/ha (Sagittaria trifolia [2]; 1.12 Kg/Ha) was 30%, the inhibition at 2240 g/ha (Sagittaria trifolia [2]; 2.24 Kg/Ha) was 15% and the inhibition at 375 g/ha (Monochoria vaginalis; 2 WAT) was 98%. It also gave an inhibition at 375 g/ha (Monochoria vaginalis; 4 WAT) of 87%, an inhibition at 375 g/ha (Monochoria vaginalis; 6 WAT) of 82% and an inhibition at 750 g/ha (Monochoria vaginalis; 2 WAT) of 100%. For the same compound, the inhibition at 750 g/ha (Monochoria vaginalis; 4 WAT) was 98%, the inhibition at 750 g/ha (Monochoria vaginalis; 6 WAT) was 100% and the inhibition at 1500 g/ha (Monochoria vaginalis; 2 WAT) was 100%. It also gave an inhibition at 1500 g/ha (Monochoria vaginalis; 4 WAT) of 100%, an inhibition at 1500 g/ha (Monochoria vaginalis; 6 WAT) of 100% and an inhibition at 3000 g/ha (Monochoria vaginalis; 2 WAT) of 100%. For the same compound, the inhibition at 3000 g/ha (Monochoria vaginalis; 4 WAT) was 100%, the inhibition at 3000 g/ha (Monochoria vaginalis; 6 WAT) was 100% and the inhibition at 375 g/ha (Rice [3]; 3 WAT) was 10%. The inhibition at 375 g/ha (Rice [3]; 5 WAT) was 8%, the inhibition at 375 g/ha (Rice [3]; 7 WAT) was 8% and the inhibition at 750 g/ha (Rice [3]; 3 WAT) was 13%. The inhibition at 750 g/ha (Rice [3]; 5 WAT) was 3%, the inhibition at 750 g/ha (Rice [3]; 7 WAT) was 7% and the inhibition at 1500 g/ha (Rice [3]; 3 WAT) was 12%. It also gave an inhibition at 1500 g/ha (Rice [3]; 5 WAT) of 7%, an inhibition at 1500 g/ha (Rice [3]; 7 WAT) of 5% and an inhibition at 3000 g/ha (Rice [3]; 3 WAT) of 12%. The inhibition at 3000 g/ha (Rice [3]; 5 WAT) was 7%, the inhibition at 3000 g/ha (Rice [3]; 7 WAT) was 5% and the inhibition at 375 g/ha (Cyperus serotinus [4]; 2 WAT) was 67%. It also gave an inhibition at 375 g/ha (Cyperus serotinus [4]; 4 WAT) of 67%, an inhibition at 375 g/ha (Cyperus serotinus [4]; 6 WAT) of 63% and an inhibition at 750 g/ha (Cyperus serotinus [4]; 2 WAT) of 95%. It also gave an inhibition at 750 g/ha (Cyperus serotinus [4]; 4 WAT) of 93%, an inhibition at 750 g/ha (Cyperus serotinus [4]; 6 WAT) of 93% and an inhibition at 1500 g/ha (Cyperus serotinus [4]; 2 WAT) of 90%. The inhibition at 1500 g/ha (Cyperus serotinus [4]; 4 WAT) was 82%, the inhibition at 1500 g/ha (Cyperus serotinus [4]; 6 WAT) was 77% and the inhibition at 3000 g/ha (Cyperus serotinus [4]; 2 WAT) was 73%. The inhibition at 3000 g/ha (Cyperus serotinus [4]; 4 WAT) was 68%, the inhibition at 3000 g/ha (Cyperus serotinus [4]; 6 WAT) was 50% and the inhibition at 280 g/ha (Rice [5]; 0.28 Kg/Ha) was 5%. For the same compound, the inhibition at 560 g/ha (Rice [5]; 0.56 Kg/Ha) was 10%, the inhibition at 1120 g/ha (Rice [5]; 1.12 Kg/Ha) was 10% and the inhibition at 2240 g/ha (Rice [5]; 2.24 Kg/Ha) was 15%. The inhibition at 375 g/ha (Sagittaria trifolia [6]; 3 WAT) was 37%, the inhibition at 375 g/ha (Sagittaria trifolia [6]; 5 WAT) was 12% and the inhibition at 375 g/ha (Sagittaria trifolia [6]; 7 WAT) was 7%. For the same compound, the inhibition at 750 g/ha (Sagittaria trifolia [6]; 3 WAT) was 26%, the inhibition at 750 g/ha (Sagittaria trifolia [6]; 5 WAT) was 10% and the inhibition at 750 g/ha (Sagittaria trifolia [6]; 7 WAT) was 8%. It also gave an inhibition at 1500 g/ha (Sagittaria trifolia [6]; 3 WAT) of 35%, an inhibition at 1500 g/ha (Sagittaria trifolia [6]; 5 WAT) of 5% and an inhibition at 1500 g/ha (Sagittaria trifolia [6]; 7 WAT) of 3%. For the same compound, the inhibition at 3000 g/ha (Sagittaria trifolia [6]; 3 WAT) was 52%, the inhibition at 3000 g/ha (Sagittaria trifolia [6]; 5 WAT) was 23% and the inhibition at 3000 g/ha (Sagittaria trifolia [6]; 7 WAT) was 13%.
